Reference: patent US9079906B2, “Triazolopyridazines as PAR1 inhibitors, production thereof, and use as medicaments” (Sanofi, priority 2008, dated 2015)
Where a name gives a salt, the structure may show the parent alone. Blank lines part the entries; values can stand above or below the compound they belong to.

Target: PAR1 (Homo sapiens (Human), UniProt P25116)
Assay: PAR1 binding test (radioligand displacement, membrane preparation)
Details: human PAR1 expressed in High Five insect cell membranes; radioligand 20 nM; read-out: Inhibition of binding IC50
Experimental: The synthesized substances were examined in a PAR1 binding test. This tested whether the substances can inhibit the binding of a radioactively labeled PAR1 agonist known from the literature at the PAR1 receptor (Ho-Sam Ahn, Mol Pharm, 51:350-356, 1997). The human PAR1 receptor was expressed transiently in High Five insect cells. From these cells, after 48 hours, a membrane preparation was produced by standard methods, aliquoted into 10 mM Tris-HCl; 0.3 mM EDTA; 1 mM EGTA; 250 mM sucrose pH 7.5, and stored at −80° C.
The substances were preincubated with the membrane at room temperature for 15 minutes, then the radioligand (ALA-(para-F-Phe)-Arg-ChA-homoArg-(3,4-^3H-Tyr)-NH2; approx. 40 Ci/mMol) was added. The end concentration of the radioligand in the test buffer (50 mM Tris-HCl; 10 mM MgCl2; 1 mM EGTA; 0.1% BSA; 2% DMSO) was 20 nM, that of the membrane 1 mg/ml. After an incubation time of 60 minutes, 25 μL of the mixture were transferred to a 96-well MultiScreenHTS FB microtiter filtration plate (from Millipore), which had been pretreated beforehand with a 0.75% aqueous polyethyleneimine solution for 5 hours at room temperature. Thereafter, with vacuum extraction, each well was washed four times with 300 μL of buffer (50 mM Tris-HCl; 10 mM MgCl2; 1 mM EGTA). The plate was then dried overnight, 100 μl of scintillator per well were added, and the plate was analyzed after 6 hours in a Wallac MicroBeta (from PerkinElmer) liquid scintillation counter. The nonspecific binding was determined in the presence of 100 μM SCH79797 (PAR-1 antagonist; from Tocris, Cat. No. 1592) and subtracted from all measurements. The 100% value used was a control without inhibitor. The % inhibition values of a substance dilution series were used to calculate the IC50 with the aid of nonlinear regression analysis according to the 4-parameter equation.

Chain of PAR1 (P25116 22-425): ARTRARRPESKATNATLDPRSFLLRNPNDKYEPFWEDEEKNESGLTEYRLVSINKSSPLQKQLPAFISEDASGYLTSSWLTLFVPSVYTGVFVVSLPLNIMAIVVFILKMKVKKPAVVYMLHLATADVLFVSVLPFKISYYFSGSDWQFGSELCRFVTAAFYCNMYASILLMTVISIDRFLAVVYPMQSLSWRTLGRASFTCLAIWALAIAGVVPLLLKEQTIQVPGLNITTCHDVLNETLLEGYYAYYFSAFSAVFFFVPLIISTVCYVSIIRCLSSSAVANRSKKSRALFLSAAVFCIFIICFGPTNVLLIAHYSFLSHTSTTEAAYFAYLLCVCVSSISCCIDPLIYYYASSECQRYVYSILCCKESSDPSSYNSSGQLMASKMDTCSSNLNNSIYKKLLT

SMILES: CCOc1nn2c(=N)n(CC(=O)c3cc(OCCCCO)c(OC)c(C(C)(C)C)c3)nc2c(C)c1C [Example 178, 1-[3-tert-butyl-5-(4-hydroxy-butoxy)-4-methoxyphenyl]-2-(6-ethoxy-3-imino-7,8-dimethyl-[1,2,4]triazolo[4,3-b]pyridazin-2-yl)ethanone hydrochloride]
IC50: 126 nM

SMILES: COCCCOc1cc(C(=O)Cn2nc3c(C)cc(OCCO)nn3c2=N)cc(C(C)(C)C)c1 [Example 101, 1-[3-tert-butyl-5-(3-methoxy-propoxy)phenyl]-2-[6-(2-hydroxyethoxy)-3-imino-8-methyl-[1,2,4]triazolo[4,3-b]pyridazin-2-yl]ethanone hydrochloride]
IC50: 1400 nM

SMILES: CCOc1nn2c(=N)n(CC(=O)c3cc(OC)cc(S(F)(F)(F)(F)F)c3)nc2cc1N(CC)CC [Example 84, 2-(7-diethylamino-6-ethoxy-3-imino-[1,2,4]triazolo[4,3-b]pyridazin-2-yl)-1-[3-methoxy-5-(pentafluorosulfanyl)-phenyl]ethanone trifluoroacetic acid salt]
IC50: 9800 nM

SMILES: COc1c(N2CCOCC2)cc(C(=O)Cn2nc3ccc(Cl)nn3c2=N)cc1C(C)(C)C [Example 56, 1-(3-tert-butyl-4-methoxy-5-morpholin-4-ylphenyl)-2-(6-chloro-3-imino-[1,2,4]triazolo-[4,3-b]pyridazin-2-yl)-ethanone trifluoroacetic acid salt]
IC50: 24000 nM

SMILES: CCC(CC)Oc1ccc2nn(CC(=O)c3cc(OCCOC)cc(C(C)(C)C)c3)c(=N)n2n1 [Example 50, 1-[3-tert-butyl-5-(2-methoxy-ethoxy)phenyl]-2-[6-(1-ethylpropoxy)-3-imino-[1,2,4]triazolo[4,3-b]pyridazin-2-yl]ethanone hydrochloride]
IC50: 631 nM

SMILES: CCOc1nn2/c(=N/C)n(CC(=O)c3cc(OCCO)cc(C(C)(C)C)c3)nc2c(C)c1C [Example 163, 1-[3-tert-butyl-5-(2-hydroxy-ethoxy)phenyl]-2-{6-ethoxy-7,8-dimethyl-3-[(E)-methylimino]-[1,2,4]triazolo[4,3-b]pyridazin-2-yl}ethanone hydrochloride]
IC50: 364 nM

SMILES: CCOc1nn2c(=N)n(CC(=O)c3cc(N4CCOCC4)c(OC)c(C(C)(C)C)c3)nc2cc1CC [Example 144, 1-(3-tert-butyl-4-methoxy-5-morpholin-4-ylphenyl)-2-(6-ethoxy-7-ethyl-3-imino-[1,2,4]triazolo[4,3-b]pyridazin-2-yl)ethanone trifluoroacetic acid salt]
IC50: 827 nM

SMILES: COc1c(OCCCCO)cc(C(=O)Cn2nc3c(C)cc(OCC4CC4)nn3c2=N)cc1C(C)(C)C [Example 199, 1-[3-tert-butyl-5-(4-hydroxy-butoxy)-4-methoxyphenyl]-2-(6-cyclopropylmethoxy-3-imino-8-methyl-[1,2,4]triazolo[4,3-b]pyridazin-2-yl)ethanone hydrochloride]
IC50: 206 nM

SMILES: CCOc1cc(C)c2nn(CC(=O)c3cc(OC(COC)COC)cc(C(C)(C)C)c3)c(=N)n2n1 [Example 127, 1-[3-tert-butyl-5-(2-methoxy-1-methoxymethylethoxy)phenyl]-2-(6-ethoxy-3-imino-8-methyl-[1,2,4]triazolo[4,3-b]pyridazin-2-yl)ethanone hydrochloride]
IC50: 2500 nM

SMILES: CCC(CC)Oc1ccc2nn(CC(=O)c3cc(OCC4CC4)cc(C(C)(C)C)c3)c(=N)n2n1 [Example 26, 1-(3-tert-butyl-5-cyclopropylmethoxyphenyl)-2-[6-(1-ethylpropoxy)-3-imino-[1,2,4]triazolo[4,3-b]pyridazin-2-yl]ethanone hydrochloride]
IC50: 1100 nM

SMILES: CCC(CC)Oc1ccc2nn(CC(=O)c3cc(N4CCOCC4)c(OC)c(C(C)(C)C)c3)c(=N)n2n1 [Example 14, 1-(3-tert-butyl-4-methoxy-5-morpholin-4-ylphenyl)-2-[6-(1-ethylpropoxy)-3-imino-[1,2,4]triazolo[4,3-b]pyridazin-2-yl)ethanone trifluoroacetic acid salt]
IC50: 279 nM

SMILES: Cc1cc(OCC2(C)COC2)nn2c(=N)n(CC(=O)c3cc(OCCO)cc(C(C)(C)C)c3)nc12 [Example 236, 1-[3-tert-butyl-5-(2-hydroxy-ethoxy)phenyl]-2-[3-imino-8-methyl-6-(3-methyloxetan-3-ylmethoxy)-[1,2,4]triazolo[4,3-b]-pyridazin-2-yl]ethanone hydrobromide]
IC50: 1400 nM

SMILES: CC(C)Oc1cc(OC(C)C)c2nn(CC(=O)c3cc(OCCO)cc(C(C)(C)C)c3)c(=N)n2n1 [Example 240, 1-[3-tert-butyl-5-(2-hydroxy-ethoxy)phenyl]-2-(3-imino-6,8-diisopropoxy-[1,2,4]triazolo[4,3-b]pyridazin-2-yl)ethanone hydrochloride]
IC50: 484 nM

SMILES: CCOc1cc(C(C)(C)O)c2nn(CC(=O)c3cc(OCCCO)c(OC)c(C(C)(C)C)c3)c(=N)n2n1 [Example 168, 1-[3-tert-butyl-5-(3-hydroxy-propoxy)-4-methoxyphenyl]-2-[6-ethoxy-8-(1-hydroxy-1-methyl-ethyl)-3-imino-[1,2,4]triazolo[4,3-b]pyridazin-2-yl]ethanone hydrochloride]
IC50: 257 nM

Further lines, results first:

IC50: 113 nM
SMILES: CCNC(=O)c1nn2/c(=N/C)n(CC(=O)c3cc(OCCCO)c(OC)c(C(C)(C)C)c3)nc2c(C)c1C [Example 239, N-ethyl-2-{2-[3-tert-butyl-5-(3-hydroxypropoxy)-4-methoxy-phenyl]-2-oxoethyl}-7,8-dimethyl-3-[(E)-methylimino]-2,3-dihydro-[1,2,4]triazolo[4,3-b]pyridazine-6-carboxamide hydrochloride]

IC50: 234 nM
SMILES: CCOc1nn2c(=N)n(CC(=O)c3cc(C(C)(C)C)cc(C(C)(C)OC)c3)nc2c(C)c1C [Example 230, 1-[3-tert-butyl-5-(1-methoxy-1-methylethyl)phenyl]-2-(6-ethoxy-3-imino-7,8-dimethyl-[1,2,4]triazolo[4,3-b]pyridazin-2-yl)ethanone hydrochloride]

IC50: 119 nM
SMILES: CCN(CC)c1nn2c(=N)n(CC(=O)c3cc(OCCCO)c(OC)c(C(C)(C)C)c3)nc2c(C)c1C [Example 186, 1-[3-tert-butyl-5-(3-hydroxy-propoxy)-4-methoxyphenyl]-2-(6-diethylamino-3-imino-7,8-methyl-[1,2,4]triazolo[4,3-b]pyridazin-2-yl)ethanone hydrochloride]

IC50: 98 nM
SMILES: CCC(CC)Oc1cc(C)c2nn(CC(=O)c3cc(OCCO)c(OC)c(C(C)(C)C)c3)c(=N)n2n1 [Example 117, 1-[3-tert-butyl-5-(2-hydroxy-ethoxy)-4-methoxyphenyl]-2-[6-(1′-ethylpropoxy)-3-imino-8-methyl-[1,2,4]triazolo[4,3-b]-pyridazin-2-yl]ethanone hydrochloride]

IC50: 219 nM
SMILES: Cc1c(OC(C)C)nn2c(=N)n(CC(=O)c3cc(OCCO)cc(C(C)(C)C)c3)nc2c1C [Example 215, 1-[3-tert-butyl-5-(2-hydroxy-ethoxy)phenyl]-(3-imino-6-isopropoxy-7,8-dimethyl-[1,2,4]triazolo[4,3-b]pyridazin-2-yl)ethanone hydrochloride]

IC50: 107 nM
SMILES: CCC(CC)Oc1cc(C)c2nn(CC(=O)c3cc(OCCO)cc(C(C)(C)C)c3)c(=N)n2n1 [Example 89, 1-[3-tert-butyl-5-(2-hydroxyethoxy)phenyl]-2-[6-(1-ethylpropoxy)-3-imino-8-methyl-[1,2,4]triazolo[4,3-b]pyridazin-2-yl]ethanone hydrochloride]

IC50: 155 nM
SMILES: CCOc1nn2c(=N)n(CC(=O)c3cc(OCCO)cc(C(C)(C)C)c3)nc2c(CC)c1C [Example 221, 1-[3-tert-butyl-5-(2-hydroxy-ethoxy)phenyl]-2-(6-ethoxy-8-ethyl-3-imino-7-methyl-[1,2,4]triazolo[4,3-b]pyridazin-2-yl)ethanone hydrochloride]

IC50: 174 nM
SMILES: CCNC(=O)c1nn2/c(=N/C)n(CC(=O)c3cc(OCCO)c(OC)c(C(C)(C)C)c3)nc2c(C)c1C [Example 207, N-ethyl-2-{2-[3-tert-butyl-5-(2-hydroxyethoxy)-4-methoxy-phenyl]-2-oxoethyl}-7,8-dimethyl-3-[(E)-methylimino]-2,3-dihydro-[1,2,4]triazolo[4,3-b]pyridazine-6-carboxamide hydrochloride]

IC50: 149 nM
SMILES: CCOc1nn2c(=N)n(CC(=O)c3cc(OCCCO)c(OC)c(C(C)(C)C)c3)nc2c(CC)c1CC [Example 197, 1-[3-tert-butyl-5-(3-hydroxy-propoxy)-4-methoxyphenyl]-2-(6-ethoxy-7,8-diethyl-3-imino-[1,2,4]triazolo[4,3-b]pyridazin-2-yl)ethanone hydrochloride]

IC50: 183 nM
SMILES: CCOc1cc(CC)c2nn(CC(=O)c3cc(OCCCO)c(OC)c(C(C)(C)C)c3)c(=N)n2n1 [Example 174, 1-[3-tert-butyl-5-(3-hydroxy-propoxy)-4-methoxyphenyl]-2-(6-ethoxy-8-ethyl-3-imino-[1,2,4]triazolo[4,3-b]pyridazin-2-yl)ethanone hydrochloride]
